Measurements reported in US20230390235A1, “THERAPEUTIC AGENT FOR COVID-19” (priority 2020, published 2023).

Legend:
[1] = test system: SARS-CoV-2 S pseudotype virus N501Y mutant strain; type: cell-based
[2] = test system: SARS-CoV-2 S pseudotype virus B.1.429 mutant strain (ε strain); type: cell-based; conditions: ε mutant strain (B.1.429); 100 μM; ACE2-expressing HEK293T cells; GFP fluorescence; FIG. 1

## COCCOCCOC(=O)N[C@@H](CC(C)C)C(=O)N[C@@H](Cc1ccccc1)C(=O)C(=O)NC1CC1 [SNJ-1945]
[1]
  entry inhibition of pseudotype virus into cells: inhibits entry
[2]
  entry inhibition of pseudotype virus into cells: inhibits entry
